Legend:
[1] = Evaluation of anti-obesity efficacy in diet-induced obesity (DIO) mouse model; assay type: in vivo, C57BL/6J-DIO mice; conditions: 0.1 mpk s.c. QD, 8 weeks, 60% HFD
Experimental: The sustained-release formulation of Example 3 according to the present invention was administered to a diet-induced obesity (DIO) mouse model to confirm the anti-obesity efficacy.
Sixteen-week-old male C57BL/6J and C57BL/6J-DIO mice (The Jackson Laboratory (JAX), Saeron Bio) were used in the study. After introduction, the mice were sufficiently fed with a regular chow diet (5 kcal % of fat, PicoLab, #5053, USA) or a high fat diet (60 kcal % of fat, Research diet, D12492, USA) together with water, maintained at a temperature of 22±2 °C and a humidity of 50±10%, and acclimated in individual cages under an automatically controlled 12-hour light/dark cycle (dark: 7 pm to 7 am). After one week of acclimation, all prepared subjects were administered and acclimated, and clinical signs (activity, stool abnormalities, bleeding, wounds, deformities, skin, hair, eye abnormalities, etc.) were observed twice a day (when administered in the morning and when monitored in the afternoon).
To evaluate body weight and food intake, the drug was administered for 8 weeks under conditions described in Table 6, and body weight (FX-2000i, A&D company, 0.01 to 2200 g) and food intake (CSG201F, OHAUS, 0.1 g to 200 g) were measured daily starting from the first day of administration. All result values were expressed as the mean±standard error, and the statistical significance of the group was calculated through an independent t-test between test substance administration groups.
The body weight measurement results were shown in FIG. 5A, and the body weight gain rate (ΔBody weight from baseline (vs Con(-)), %) was shown in FIG. 5B. This was shown as the body weight change (%) calculated by comparing the drug-administered groups to the negative control group.

[2] = Pharmacokinetic profile of sustained-release formulation in minipigs (s.c., LC-MS/MS of blood); assay type: in vivo; conditions: 0.08 mpk
Experimental: Next, in order to evaluate the pharmacokinetics in medium-sized animals, the sustained-release formulation of Example 3 according to the present invention was administered to minipigs, and the drug release patterns within the microspheres in the body were evaluated.
After subcutaneous injection (S.C) of drug at a dose of 0.08 mpk (mg/kg) into 20 to 30 kg of male SPF minipigs, the blood concentration of semaglutide was observed over time. A 2.5 ml of blood was collected from the jugular vein at 1 hour, 6 hours, 12 hours, 24 hours, 2 days, 3 days, 5 days, 7 days, 9 days, 11 days, 14 days, 16 days, 18 days, 21 days, 24 days, 28 days, 31 days, 35 days, 42 days, 49 days, 56 days, 63 days, and 70 days (total 23 points) after injection, respectively, stored at −80 °C, and then subjected to LC-MS/MS analysis.

With `CC[C@H](C)[C@H](NC(=O)[C@H](Cc1ccccc1)NC(=O)[C@H](CCC(=O)O)NC(=O)[C@H](CCCCNC(=O)COCCOCCNC(=O)COCCOCCNC(=O)CC[C@H](NC(=O)CCCCCCCCCCCCCCCCC(=O)O)C(=O)O)NC(=O)[C@H](C)NC(=O)[C@H](C)NC(=O)[C@H](CCC(N)=O)NC(=O)CNC(=O)[C@H](CCC(=O)O)NC(=O)[C@H](CC(C)C)NC(=O)[C@H](Cc1ccc(O)cc1)NC(=O)[C@H](CO)NC(=O)[C@H](CO)NC(=O)[C@@H](NC(=O)[C@H](CC(=O)O)NC(=O)[C@H](CO)NC(=O)[C@@H](NC(=O)[C@H](Cc1ccccc1)NC(=O)[C@@H](NC(=O)CNC(=O)[C@H](CCC(=O)O)NC(=O)C(C)(C)NC(=O)[C@@H](N)Cc1cnc[nH]1)[C@@H](C)O)[C@@H](C)O)C(C)C)C(=O)N[C@@H](C)C(=O)N[C@@H](Cc1c[nH]c2ccccc12)C(=O)N[C@@H](CC(C)C)C(=O)N[C@H](C(=O)N[C@@H](CCCNC(=N)N)C(=O)NCC(=O)N[C@@H](CCCNC(=N)N)C(=O)NCC(=O)O)C(C)C` [semaglutide, N^6,26-{18-[N-(17carboxyheptadecanoyl)-L-γ-glutamyl]-10-oxo-3,6,12,15-tetraoxa-9,18-diazaoctanoyl}-[8 (2-amino-2-propanoic acid), 34-L-arginine] human glucagon-like peptide 1(7-37)] as the compound, how does the “Body weight loss rate (ΔBody weight from baseline vs Con(-))” value [1] read?
The value was “statistically significant (p<0.05) body weight loss rate”.

What about the “Body weight vs negative control group” value [1] of the same compound?
The value was “statistically significant decrease (p<0.05) in body weight”.

What about the “Food intake vs negative control group” value [1] of the same compound?
The value was “statistically significant decrease (p<0.05) in food intake”.

And the “Initial burst release or delayed release” value ([2]; formulation containing the microspheres of Example 3)?
Its value is “no initial burst release or delayed release in minipigs”.

And the “Release duration of semaglutide” value ([2]; formulation containing the microspheres of Example 3, compared with S.D. rats)?
The value was “longer in minipigs”.

From patent US20260355115A1, “SUSTAINED-RELEASE MICROSPHERES INCLUDING GLP-1 RECEPTOR AGONIST OR PHARMACEUTICALLY ACCEPTABLE SALT THEREOF AND USE THEREOF” (PEPTRON, INC., priority 2022, published 2026)
